Data reported in patent US20050259249A1, “Nonlinear optical detection of fast cellular electrical activity” (priority 2004, published 2005).
Entries after “also recorded” stand apart in the source; their conditions may differ. Where a name gives a salt, the structure may show the parent alone.

What was measured:
[1] = test system: mossy fibers; assay: Pharmacology: SHG from mossy fibers of acute hippocampal slices after cytoskeleton-depolymerizing drugs; format: cell-based, rat; settings: for Effect on SHG from mossy fibers compared to the control: cytochalasin D 1 μM or nocodazole 25 μM, solvent control
Text: SHG and TPF microscopy were simultaneously performed on either a Bio-Rad MRC 1024 or Radiance scan head on a modified inverted Olympus IX-70 microscope (FIG. 1). The excitation source was a mode-locked Ti:Sapphire laser (˜100 fs pulses at 80 MHz) (Spectra-Physics) pumped by a 5 W solid state Millennia laser (Spectra-Physics). The laser polarization was controlled via a Berek polarization compensator (New Focus, San Jose, Calif.) and the beam focused into the sample with one of the following (overfilled back aperture) objectives: Zeiss C-Apochromat 10×/0.45 NA, Olympus UApo 20×/0.7 NA, Zeiss Fluar 20×/0.75 NA, Olympus UApo 40×/1.15 NA, Zeiss Fluar 40×/1.3 NA. The resultant SHG was collected in the transmitted (forward) direction with an Olympus XLUMPlanFl 20×/0.95 NA objective, while the TPF was epi-collected through the excitation objective. A combination of dichroic mirrors, band-pass and blue-glass filters (Chroma Technology, Brattleboro, Vt.) and polarization analyzers (Newport) separated the signals for detection with Bialkali photo-multiplier tubes (PMTs) (Hammamatsu). The excitation wavelength, average excitation intensity (<I>) at the sample, and two-photon 1/e radial Gaussian beam waist approximation (w) (Richards et al., Proc Royal Soc London Series A-Mathematical Physical Sciences 253:358-379 (1959), which is hereby incorporated by reference in its entirety) are given with the figures. The average power at the sample is (<I>·π·w^2). The images are temporally summed over several scans at dwell times ˜10-100 μs/μm^2. Confocal imaging was performed on the same microscope, but using an argon-krypton laser for excitation. […]
The slices were transferred from the static incubation bath to a static ASCF bath on the microscope stage. […] The average intensities from the three groups were calculated and compared for statistical significance with a T-test.

[2] = test system: cultured Aplysia neurons; assay: SHG line scan recording of Vm in dye-stained cultured Aplysia neurons under voltage clamp; format: cell-based, Aplysia californica; settings: 8 μM dye extracellular perfusion, 940 nm excitation, two-electrode voltage clamp
Description: Abdominal and cerebral ganglia from up to 15 different 5-10 g Aplysia californica were dissociated and cultured with like ganglia (i.e., abdominal with abdominal, cerebral with cerebral) according to Banker and Goslin (i.e., Banker et al., Culturing Nerve Cells, 2nd Edition, Cambridge, Mass.: MIT Press (1998), which is hereby incorporated by reference in its entirety). The cultures were grown in MatTek glass bottom dishes (MatTek Corp., Ashland, Mass.) at 17-18 C. For recordings, 4 to 14 day old cultures were used.
For staining and imaging, 4-[[4-(dihexylamino)phenyl]]ethynyl]-1-(4-sulfobutyl)pyridinium, inner salt (“DHPESBP”) (“Molecule B” from Moreaux et al., “Electro-Optic Response of Second-Harmonic Generation Membrane Potential Sensors,” Optics Letters 28:625-627 (2003), which is hereby incorporated by reference in its entirety) was used, because of its proven fast (<150 μs) response to Vm. SHG from giant unilamellar vesicles stained with this molecule was sensitive to Vm on fast time scales through an electrochromic (rather than reorientational) mechanism (Moreaux et al., “Electro-Optic Response of Second-Harmonic Generation Membrane Potential Sensors,” Optics Letters 28:625-627 (2003), which is hereby incorporated by reference in its entirety). […]

[3] = electrochromic mechanism; from Moreaux et al., Optics Letters 28:625-627 (2003); cited from earlier work
[4] = test system: neurons in the hippocampal region; assay: SHG line scan recording of membrane potential in dye-filled neurons of acute brain slices; format: cell-based, rat; settings: neurons filled with dye via patch pipette, ~1060 nm/~300 fs laser pulses, voltage steps at the soma
Text: SHG microscopy is emerging as a powerful new method to optically record membrane potential changes of active neurons. […] This technique has been applied to acute rat brain slices by patch clamping and filling neurons in the hippocampal region with the dye FM4-64. […] The SHG signal emanates from the plasma membrane with little background from intra- or extracellular regions. […] Additionally, it has been shown that a backward propagating SHG signal exists (Forward/Backward ratio ˜6).
Repeated line scanning of the SHG signal was used to optically record action potentials (signal to noise ratio (S/N) ˜5-8 by temporal averaging of ˜50 line scans) on somatic membranes. Voltage steps were applied at the soma and the SHG response was recorded in the dendritic arbor >100 μm deep in slice. Dendritic spines were clearly visible, possibly making the recording of membrane potential transients from these compartments feasible. […] The line scan averaging necessary to increase S/N was accomplished in minutes. […] In addition to patch clamping, it was shown that extracellular micropipette pressure injection of the dye into hippocampal cell layers leads to SHG labeling of many tens of neurons.

With `C=C1[C@@H](C)[C@H]2[C@H](Cc3ccccc3)NC(=O)[C@]23[C@H](OC(C)=O)/C=C/[C@@](C)(O)C(=O)[C@@H](C)C/C=C/[C@H]3[C@@H]1O` [Cytochalasin D] the “Effect on SHG from mossy fibers compared to the control” value [1] was “did not affect the SHG; also recorded: no significant effect”.
For `CCCCCCN(CCCCCC)c1ccc(C#Cc2cc[n+](CCCCS(=O)(=O)[O-])cc2)cc1` [DHPESBP, 4-[[4-(dihexylamino)phenyl]ethynyl]-1-(4-sulfobutyl)pyridinium, inner salt], the “SHG signal change as a function of change in membrane potential (linear response)” value [2] is listed as about 6 %/100 mV and the “Response time of SHG to Vm” value [3] is listed as under 150 μs.
For `CCN(CC)c1ccc(C=CC=CC=Cc2cc[n+](CCC[N+](CC)(CC)CC)cc2)cc1.[Br-].[Br-]` [FM4-64, N-(3-triethylammoniumpropyl)-4-(6-(4-(diethylamino)phenyl)hexatrienyl)pyridinium dibromide], the “SHG signal linear response to membrane potential” value [4] was about 7.7 %/100 mV.
For `COC(=O)Nc1nc2ccc(C(=O)c3cccs3)cc2[nH]1` [nocodazole, Nocodazole], the “SHG from the mossy fibers after addition of the drug, relative to its original value” ([1]; continuous treatment, nocodazole 25 μM, imaged for 70 min, 34° C., 4 slices) was about 39% and the “Effect on SHG from mossy fibers compared to the control” value [1] was “drastic”.
